Source: the supplement of paper PMC10307832

What was measured:
Test in all cases: relative viability (nuclei count vs DMSO), 5 days (fraction); higher = more cells survive
LK-2 = tested on: LK-2
Summary of the method: (§1)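 A single step with final 0.05% Triton X-100, 1% formaldehyde and 1 ug/ml Hoechst fixed the cells and stained nuclei 5 days after treatment. Lung cancer cell lines in 1536-well plates had been treated by pin tool the day after seeding with one drug alone or a fixed anchor-drug dose plus five library-drug doses (not always all listed) in √10 steps, and nuclei were counted on 4× images. Relative viability is the ratio of nuclei in treated wells to nuclei in vehicle wells, taken as the median of duplicate plates.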

A-427 = tested on: A-427
Summary of the method: as §1

NCI-H23 = tested on: NCI-H23
Summary of the method: as §1

PC-3 [JPC-3] = tested on: PC-3 [JPC-3]
Summary of the method: as §1

201T = tested on: 201T
Summary of the method: as §1

LU99A = tested on: LU99A
Summary of the method: as §1

RERF-LC-KJ = tested on: RERF-LC-KJ
Summary of the method: as §1

LCLC-97TM1 = tested on: LCLC-97TM1
Summary of the method: as §1

H3255 = tested on: H3255
Summary of the method: as §1

NCI-H1651 = tested on: NCI-H1651
Summary of the method: as §1

COR-L23 = tested on: COR-L23
Summary of the method: as §1

NCI-H1563 = tested on: NCI-H1563
Summary of the method: as §1

SW 1573 = tested on: SW 1573
Summary of the method: as §1

NCI-H1650 = tested on: NCI-H1650
Summary of the method: as §1

NCI-H1944 = tested on: NCI-H1944
Summary of the method: as §1

LCLC-103H = tested on: LCLC-103H
Summary of the method: as §1

PC-14 = tested on: PC-14
Summary of the method: as §1

NCI-H1793 = tested on: NCI-H1793
Summary of the method: as §1

NCI-H2347 = tested on: NCI-H2347
Summary of the method: as §1

SW 900 = tested on: SW 900
Summary of the method: as §1

NCI-H650 = tested on: NCI-H650
Summary of the method: as §1

NCI-H460 = tested on: NCI-H460
Summary of the method: as §1

NCI-H727 = tested on: NCI-H727
Summary of the method: as §1

NCI-H838 = tested on: NCI-H838
Summary of the method: as §1

Question: `CC(C)Oc1cc(Nc2nc(N[C@@H](C)c3ccc(F)cn3)ncc2Cl)n[nH]1` [AZ23] + CCNC(=O)c1noc(-c2cc(C(C)C)c(O)cc2O)c1-c1ccc(CN2CCOCC2)cc1 [Luminespib] (partner 0.01 µM) was tested. Which relative viability (LK-2; first compound 0.01 µM) did it give?
Answer: 0.185

Question: What about the relative viability (LK-2; first compound 0.03162 µM) of the same compound?
Answer: 0.189

Question: What about the relative viability (LK-2; first compound 0.3162 µM) of the same compound?
Answer: 0.177

Question: What about the relative viability (A-427; first compound 0.01 µM) of the same compound?
Answer: 0.844

Question: And the relative viability (A-427; first compound 0.03162 µM)?
Answer: 1.03

Question: And the relative viability (A-427; first compound 0.3162 µM)?
Answer: 1.03

Question: And the relative viability (NCI-H23; first compound 0.03162 µM)?
Answer: 0.229

Question: What about the relative viability (NCI-H23; first compound 0.3162 µM) of the same compound?
Answer: 0.204

Question: What about the relative viability (PC-3 [JPC-3]; first compound 0.01 µM) of the same compound?
Answer: 0.581

Question: What about the relative viability (PC-3 [JPC-3]; first compound 0.03162 µM) of the same compound?
Answer: 0.582

Question: What about the relative viability (PC-3 [JPC-3]; first compound 0.3162 µM) of the same compound?
Answer: 0.637

Question: And the relative viability (201T; first compound 0.01 µM)?
Answer: 1.15

Question: And the relative viability (201T; first compound 0.03162 µM)?
Answer: 1.02

Question: And the relative viability (201T; first compound 0.3162 µM)?
Answer: 1.02

Question: And the relative viability (LU99A; first compound 0.01 µM)?
Answer: 0.217

Question: What about the relative viability (LU99A; first compound 0.03162 µM) of the same compound?
Answer: 0.188

Question: And the relative viability (LU99A; first compound 0.3162 µM)?
Answer: 0.298

Question: What about the relative viability (RERF-LC-KJ; first compound 0.01 µM) of the same compound?
Answer: 1.34

Question: What about the relative viability (RERF-LC-KJ; first compound 0.03162 µM) of the same compound?
Answer: 1.43

Question: And the relative viability (RERF-LC-KJ; first compound 0.3162 µM)?
Answer: 1.38

Question: What about the relative viability (LCLC-97TM1; first compound 0.01 µM) of the same compound?
Answer: 0.846

Question: And the relative viability (LCLC-97TM1; first compound 0.03162 µM)?
Answer: 0.783

Question: What about the relative viability (LCLC-97TM1; first compound 0.3162 µM) of the same compound?
Answer: 0.796

Question: And the relative viability (H3255; first compound 0.01 µM)?
Answer: 0.574

Question: And the relative viability (H3255; first compound 0.03162 µM)?
Answer: 0.888

Question: And the relative viability (H3255; first compound 0.3162 µM)?
Answer: 0.854

Question: What about the relative viability (NCI-H1651; first compound 0.03162 µM) of the same compound?
Answer: 0.753

Question: And the relative viability (NCI-H1651; first compound 0.3162 µM)?
Answer: 0.672

Question: What about the relative viability (COR-L23; first compound 0.01 µM) of the same compound?
Answer: 0.405

Question: And the relative viability (COR-L23; first compound 0.03162 µM)?
Answer: 0.814

Question: What about the relative viability (COR-L23; first compound 0.3162 µM) of the same compound?
Answer: 0.869

Question: And the relative viability (NCI-H1563; first compound 0.01 µM)?
Answer: 0.544

Question: What about the relative viability (NCI-H1563; first compound 0.03162 µM) of the same compound?
Answer: 0.571

Question: And the relative viability (NCI-H1563; first compound 0.3162 µM)?
Answer: 0.596

Question: What about the relative viability (SW 1573; first compound 0.01 µM) of the same compound?
Answer: 0.189

Question: What about the relative viability (SW 1573; first compound 0.03162 µM) of the same compound?
Answer: 0.164

Question: And the relative viability (SW 1573; first compound 0.3162 µM)?
Answer: 0.227

Question: What about the relative viability (NCI-H1650; first compound 0.03162 µM) of the same compound?
Answer: 0.202

Question: What about the relative viability (NCI-H1650; first compound 0.3162 µM) of the same compound?
Answer: 0.195

Question: What about the relative viability (NCI-H1944; first compound 0.01 µM) of the same compound?
Answer: 0.557

Question: And the relative viability (NCI-H1944; first compound 0.03162 µM)?
Answer: 0.75

Question: What about the relative viability (NCI-H1944; first compound 0.3162 µM) of the same compound?
Answer: 0.726

Question: What about the relative viability (LCLC-103H; first compound 0.01 µM) of the same compound?
Answer: 1.04

Question: What about the relative viability (LCLC-103H; first compound 0.03162 µM) of the same compound?
Answer: 0.923

Question: What about the relative viability (LCLC-103H; first compound 0.3162 µM) of the same compound?
Answer: 1.03

Question: And the relative viability (PC-14; first compound 0.03162 µM)?
Answer: 0.21

Question: What about the relative viability (PC-14; first compound 0.3162 µM) of the same compound?
Answer: 0.21

Question: What about the relative viability (NCI-H1793; first compound 0.01 µM) of the same compound?
Answer: 0.158

Question: And the relative viability (NCI-H1793; first compound 0.03162 µM)?
Answer: 0.194

Question: And the relative viability (NCI-H1793; first compound 0.3162 µM)?
Answer: 0.143

Question: And the relative viability (NCI-H2347; first compound 0.01 µM)?
Answer: 0.486

Question: What about the relative viability (NCI-H2347; first compound 0.03162 µM) of the same compound?
Answer: 0.62

Question: What about the relative viability (NCI-H2347; first compound 0.3162 µM) of the same compound?
Answer: 0.41

Question: What about the relative viability (SW 900; first compound 0.01 µM) of the same compound?
Answer: 0.174

Question: What about the relative viability (SW 900; first compound 0.03162 µM) of the same compound?
Answer: 0.143

Question: What about the relative viability (SW 900; first compound 0.3162 µM) of the same compound?
Answer: 0.174

Question: And the relative viability (NCI-H650; first compound 0.01 µM)?
Answer: 0.665

Question: What about the relative viability (NCI-H650; first compound 0.03162 µM) of the same compound?
Answer: 0.854

Question: What about the relative viability (NCI-H650; first compound 0.3162 µM) of the same compound?
Answer: 0.765

Question: And the relative viability (NCI-H460; first compound 0.01 µM)?
Answer: 0.0317

Question: What about the relative viability (NCI-H460; first compound 0.03162 µM) of the same compound?
Answer: 0.0332

Question: And the relative viability (NCI-H460; first compound 0.3162 µM)?
Answer: 0.0248

Question: And the relative viability (NCI-H727; first compound 0.01 µM)?
Answer: 0.354

Question: What about the relative viability (NCI-H727; first compound 0.03162 µM) of the same compound?
Answer: 0.311

Question: And the relative viability (NCI-H727; first compound 0.3162 µM)?
Answer: 0.454

Question: And the relative viability (NCI-H838; first compound 0.01 µM)?
Answer: 0.229

Question: What about the relative viability (NCI-H838; first compound 0.03162 µM) of the same compound?
Answer: 0.278

Question: And the relative viability (NCI-H838; first compound 0.3162 µM)?
Answer: 0.345
